Laboratory results published in patent US20260034111A1, “NOVEL HETEROCYCLES AS sPLA2-X INHIBITORS” (Cayman Chemical Company Incorporated, priority 2022, published 2026).
Where two headings read alike, the source gives them in different places.

Tests used:
Assay type in all cases: biochemical
[1] = target: T1, recombinant human sPLA2-V enzyme (Homo sapiens, UniProt P39877); assay: sPLA2-V enzyme inhibition assay (thio-PC substrate, DTNB detection, absorbance 410 nm)
T1 construct: made in house; host or cells: E. coli
T1 sequence (P39877 21-138): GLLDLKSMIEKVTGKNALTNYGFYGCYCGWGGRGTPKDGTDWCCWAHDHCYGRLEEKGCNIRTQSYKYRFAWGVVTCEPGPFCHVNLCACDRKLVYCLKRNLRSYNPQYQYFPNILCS
Text: (§1) Screening Compounds for Inhibition of sPLA2-X, sPLA2-V, and sPLA2-IIA Enzyme Activity
(§2) These sPLA2 enzymes hydrolyze the sn-2 acyl chains of glycerophospholipids, resulting in the release of a free fatty acid and a lysophospholipid. In the case of the thio-PC substrate, this enzymatic hydrolysis results in a free sulfhydryl group remaining on the lysophospholipid. This free sulfhydryl reacts with DTNB to produce the chromogenic product 5-nitro-2-thiobenzoic acid (TNB) which can be quantitated by absorbance at 410 nm. The amount of TNB produced reflects the hydrolytic activity of the enzyme.
(§3) The recombinant human sPLA2 groups IIA, V, and X enzymes were expressed in E. coli and purified to >90% purity by standard biochemical methods.
(§4) Procedure of Enzyme Inhibition for sPLA2-X • 1. […] Dilute the test compounds in 100% DMSO by half-log steps in a 96-well dilution plate using columns 1-11 (one compound per row). Column 12 contains DMSO alone with no compound. • 3. Prepare a 3.5 mM thio-PC substrate solution by drying down 7.2 mg of stock thio-PC in ethanol under a gentle stream of N2 gas. When dry, add 4 mL assay buffer (25 mM Tris, pH7.4; 100 mM KCl; 10 mM CaCl2; 0.1% Triton X-100) and warm in a 37° C. water bath for 20 minutes with intermittent vortexing. • 4. Prepare an “enzyme containing” reaction mix with the following components: 20.4 mL assay buffer; 2 mL DTNB (20 mM in 800 mM Tris, pH8.0); and 11.8 mg recombinant human sPLA2-X enzyme (>95% pure) diluted to a total of 0.8 mL assay buffer. • 5. Prepare a “no enzyme” reaction mix with the following components: 477 μL assay buffer and 45 μL DTNB. • 6. Dispense 58 μL “no enzyme” reaction mix into each of 8 wells (columns 23 and 24, rows M-P). • 7. Dispense 58 μL “enzyme containing” reaction mix into all remaining wells on the plate. • 8. From the 96-well compound dilution plate, add 2 μL from each well for each compound to each of 4 wells with “enzyme containing” reaction mix. Columns 23 and 24 on the assay plate will contain only DMSO (vehicle control). […] After compound addition, mix the contents of each well to ensure that the DMSO is evenly distributed in the well. • 9. Cover the plate and incubate in the dark at room temperature for 15 minutes. • 10. Add 10 μL of thio-PC substrate to all wells. The final concentration of thio-PC in the reactions is 0.5 mM. • 11. Cover the plate and incubate in the dark at room temperature for 30 minutes. • 12. Measure the absorbance of all wells at 410 nm. • 13. Determine the mean absorbance of the “no enzyme” wells. Subtract this value from the absorbance values determined for all other wells (these are now background corrected data). • 14. […] Procedure of Enzyme Inhibition for sPLA2-V • 1. […] Dilute the test compounds in 100% DMSO by half-log steps in a 96-well dilution plate using columns 1-11. Column 12 contains DMSO alone with no compound. • 3. Prepare a 3.5 mM thio-PC substrate solution by drying down 7.2 mg of stock thio-PC in ethanol under a gentle stream of N2 gas. When dry, add 4 mL assay buffer (25 mM Tris, pH7.4; 100 mM KCl; 10 mM CaCl2; 0.1% Triton X-100) and warm in a 37° C. water bath for 20 minutes with intermittent vortexing. • 4. Prepare an “enzyme containing” reaction mix with the following components: 20.4 mL assay buffer; 2 mL DTNB (20 mM in 800 mM Tris, pH8.0); and 12 mg recombinant human sPLA2-V enzyme (>95% pure) diluted to a total of 0.8 mL assay buffer. • 5. Prepare a “no enzyme” reaction mix with the following components: 477 μL assay buffer and […]. • 6. Dispense 58 μL “no enzyme” reaction mix into each of 8 wells (columns 23 and 24, rows M-P). • 7. Dispense 58 μL “enzyme containing” reaction mix into all remaining wells on the plate. • 8. From the 96-well compound dilution plate, add 2 μL from each well for each compound to each of 4 wells with “enzyme containing” reaction mix. Columns 23 and 24 on the assay plate will contain only DMSO (vehicle control).

[2] = target: T2, recombinant human sPLA2-IIA enzyme (Homo sapiens, UniProt P14555); assay: sPLA2-IIA enzyme inhibition assay (thio-PC substrate, DTNB detection, absorbance 410 nm); details: class symbols
T2 construct: made in house; host or cells: E. coli
T2 sequence (P14555 21-144): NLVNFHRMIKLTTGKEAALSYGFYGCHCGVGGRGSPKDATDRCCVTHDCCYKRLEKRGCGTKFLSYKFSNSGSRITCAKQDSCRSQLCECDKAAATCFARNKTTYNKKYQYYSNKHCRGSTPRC
Text: as §1, §2, §3, §4

sPLA2-X protein = target: T3, sPLA2-X protein (Homo sapiens, UniProt O15496); assay: sPLA2-X enzyme inhibition assay (thio-PC substrate, DTNB detection, absorbance 410 nm); set-up: made in house; host or cells: E. coli; details: class symbols
T3 sequence (O15496 43-165): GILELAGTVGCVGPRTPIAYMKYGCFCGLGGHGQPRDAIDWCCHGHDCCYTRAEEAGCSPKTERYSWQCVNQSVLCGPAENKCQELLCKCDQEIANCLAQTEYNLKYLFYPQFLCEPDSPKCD
Text: as §1, §2, §3, §4

[3] = class symbols, read-out: sPLA2 Type V Inhibition (IC50; nM)
[4] = read-out: sPLA2 Type IIa Inhibition (IC50; nM)
[5] = read-out: sPLA2 Type X Inhibition (IC50; nM)

SMILES | IC50 [1, 3] [nM] | IC50 [2, 4] [nM] | IC50 (sPLA2-X protein; [5]) [nM] | IC50 ([1]; sPLA2 Type V Inhibition (IC50; nM), class symbols) [nM] | IC50 ([2]; sPLA2 Type IIa Inhibition (IC50; nM)) [nM] | IC50 (sPLA2-X protein; sPLA2 Type X Inhibition (IC50; nM)) [nM] | IC50 ([1]; IC50 value for positive control, sPLA2-V, value the positive control should give per the procedure) [nM] | IC50 ([1]; numeric value, control, read-out: sPLA2 Type V Inhibition (IC50; nM)) [nM]
NC(=O)c1cc2ccc(OC(F)(F)F)cc2n1-c1cccc(C2CC2C(=O)O)c1 (racemic) [Compound 15, trans-2-(3-(2-carbamoyl-6-(trifluoromethoxy)-1H-indol-1-yl)phenyl)cyclopropane-1-carboxylic acid] | > 5000 | > 1000 | 20 to 50 |  |  |  |  | 
NC(=O)c1cc2ccc(OC(F)(F)F)cc2n1-c1cccc(C2CC2C(=O)O)n1 (racemic) [Compound 28, trans-(rac)-2-(6-(2-carbamoyl-6-(trifluoromethoxy)-1H-indol-1-yl)pyridin-2-yl)cyclopropane-1-carboxylic acid] | > 5000 | > 1000 | < 20 |  |  |  |  | 
NC(=O)c1sc2ccc(OC(F)(F)F)cc2c1-c1cccc(C2CC2C(=O)O)n1 (racemic) [Compound 54, trans-(rac)-2-(6-(2-carbamoyl-5-(trifluoromethoxy)benzo[b]thiophen-3-yl)pyridin-2-yl)cyclopropane-1-carboxylic acid] | > 5000 | > 1000 | 50 to 200 |  |  |  |  | 
NC(=O)c1[se]c2ccc(OC(F)(F)F)cc2c1-c1cccc(C2CC2C(=O)O)n1 (racemic) [Compound 55, trans-(rac)-2-(6-(2-carbamoyl-5-(trifluoromethoxy)benzo[b]selenophen-3-yl)pyridin-2-yl)cyclopropane-1-carboxylic acid] |  |  |  | > 5000 | > 1000 | > 200 |  | 
NC(=O)c1cc2ccc(OC(F)(F)F)cc2n1-c1cccc(C2CC2C(=O)O)c1 (single isomer, unassigned) [Compound 15a, trans-(+)-2-(3-(2-carbamoyl-6-(trifluoromethoxy)-1H-indol-1-yl)phenyl)cyclopropane-1-carboxylic acid] | > 5000 | > 1000 | > 200 |  |  |  |  | 
NC(=O)c1cc2ccc(OC(F)(F)F)cc2n1-c1cccc(C2CC2C(=O)O)c1 (single isomer, unassigned) [Compound 15b, trans-(−)-2-(3-(2-carbamoyl-6-(trifluoromethoxy)-1H-indol-1-yl)phenyl)cyclopropane-1-carboxylic acid] | > 5000 | > 1000 | 20 to 50 |  |  |  |  | 
COc1cnc2cc(C(N)=O)n(-c3cccc(C4CC4C(=O)O)n3)c2c1 (single isomer, unassigned) [Compound 51, trans-2-(6-(2-carbamoyl-6-methoxy-1H-pyrrolo[3,2-b]pyridin-1-yl)pyridin-2-yl)cyclopropane-1-carboxylic acid] | > 5000 | > 1000 | > 200 |  |  |  |  | 
NC(=O)c1cc2ccc(OC(F)(F)F)cc2n1-c1ccc2c(c1)C(CC(=O)O)CO2 (single isomer, unassigned; (+)) [Compound 1a, (+)-2-(5-(2-carbamoyl-6-(trifluoromethoxy)-1H-indol-1-yl)-2,3-dihydrobenzofuran-3-yl)acetic acid] | > 5000 | > 1000 | 50 to 200 |  |  |  |  | 
NC(=O)c1cc2ccc(OC(F)(F)F)cc2n1-c1ccc2c(c1)C(CC(=O)O)CO2 (single isomer, unassigned; (-)) [Compound 1b, (−)-2-(5-(2-carbamoyl-6-(trifluoromethoxy)-1H-indol-1-yl)-2,3-dihydrobenzofuran-3-yl)acetic acid] |  | > 1000 | > 200 |  |  |  |  | 
CCc1c(C(=O)C(N)=O)c2c(OCC(=O)O)cccc2n1Cc1ccccc1 [LY315920, Varespladib, reference compound] |  |  |  |  |  |  | ~100 | 124

The next lines start with results.

IC50 [1, 3] [nM] | IC50 [2, 4] [nM] | IC50 (sPLA2-X protein; [5]) [nM] | SMILES | IC50 ([1]; sPLA2 Type V Inhibition (IC50; nM), class symbols) [nM] | IC50 ([2]; sPLA2 Type IIa Inhibition (IC50; nM)) [nM] | IC50 (sPLA2-X protein; sPLA2 Type X Inhibition (IC50; nM)) [nM] | IC50 ([1]; IC50 value for positive control, sPLA2-V, value the positive control should give per the procedure) [nM] | IC50 ([1]; numeric value, control, read-out: sPLA2 Type V Inhibition (IC50; nM)) [nM]
1500 to 5000 | 200 to 500 | 20 to 50 | NC(=O)c1cc2ccc(OC(F)(F)F)cc2n1-c1cccc(C2CC2C(=O)O)n1 (racemic) [Compound 28c, cis-(rac)-2-(6-(2-carbamoyl-6-(trifluoromethoxy)-1H-indol-1-yl)pyridin-2-yl)cyclopropane-1-carboxylic acid] |  |  |  |  | 
> 5000 | > 1000 | < 20 | NC(=O)c1cc2ccc(OC(F)(F)F)cc2n1-c1cccc([C@H]2C[C@@H]2C(=O)O)n1 (relative stereo) [Compound 28a, trans-(−)-2-(6-(2-carbamoyl-6-(trifluoromethoxy)-1H-indol-1-yl)pyridin-2-yl)cyclopropane-1-carboxylic acid] |  |  |  |  | 
< 500 | 200 to 500 | < 20 | C[C@]1(c2cccc(-n3c(C(N)=O)cc4ccc(OC(F)(F)F)cc43)c2)C[C@H]1C(=O)O (relative stereo) [Compound 38a, cis-2-(3-(2-carbamoyl-6-(trifluoromethoxy)-1H-indol-1-yl)phenyl)-2-methylcyclopropane-1-carboxylic acid] |  |  |  |  | 
> 5000 | > 1000 | 20 to 50 | C[C@@]1(c2cccc(-n3c(C(N)=O)cc4ccc(OC(F)(F)F)cc43)c2)C[C@H]1C(=O)O (relative stereo) [Compound 38b, trans-2-(3-(2-carbamoyl-6-(trifluoromethoxy)-1H-indol-1-yl)phenyl)-2-methylcyclopropane-1-carboxylic acid] |  |  |  |  | 
> 5000 | > 1000 | > 200 | NC(=O)c1cc2ccc(OC(F)(F)F)cc2n1-c1cccc([C@@H]2C[C@H]2C(=O)O)n1 (single isomer, unassigned) [Compound 28b, trans-(+)-2-(6-(2-carbamoyl-6-(trifluoromethoxy)-1H-indol-1-yl)pyridin-2-yl)cyclopropane-1-carboxylic acid] |  |  |  |  | 
1500 to 5000 | > 1000 | 50 to 200 | NC(=O)c1cc2ccc(OC(F)(F)F)cc2n1-c1cccc(C2CC2C(=O)O)n1 (single isomer, unassigned) [Compound 28d, cis-(−)-2-(6-(2-carbamoyl-6-(trifluoromethoxy)-1H-indol-1-yl)pyridin-2-yl)cyclopropane-1-carboxylic acid] |  |  |  |  | 
> 5000 | < 200 | < 20 | NC(=O)c1cc2ccc(OC(F)(F)F)cc2n1-c1cccc(C2CC2C(=O)O)n1 (single isomer, unassigned) [Compound 28e, cis-(+)-2-(6-(2-carbamoyl-6-(trifluoromethoxy)-1H-indol-1-yl)pyridin-2-yl)cyclopropane-1-carboxylic acid] |  |  |  |  | 
